Results on 18 compounds are retold here after patent US9233964B2, “Sulfamide piperazine derivatives as protein tyrosine kinase inhibitors and pharmaceutical use therof” (LEO PHARMA A/S, priority 2011, dated 2016).

What all share (format): biochemical
The target of one test is T1, JAK1 (Homo sapiens, UniProt P23458).
T1 construct: JAK1 (aa 850-1154) and TYK2 (aa 871-1187) are expressed with an N-terminally fused GST-tag; GST (N); purchased Carna Biosciences, Inc; host or cells: baculovirus expression system
T1 sequence (P23458 850-1154): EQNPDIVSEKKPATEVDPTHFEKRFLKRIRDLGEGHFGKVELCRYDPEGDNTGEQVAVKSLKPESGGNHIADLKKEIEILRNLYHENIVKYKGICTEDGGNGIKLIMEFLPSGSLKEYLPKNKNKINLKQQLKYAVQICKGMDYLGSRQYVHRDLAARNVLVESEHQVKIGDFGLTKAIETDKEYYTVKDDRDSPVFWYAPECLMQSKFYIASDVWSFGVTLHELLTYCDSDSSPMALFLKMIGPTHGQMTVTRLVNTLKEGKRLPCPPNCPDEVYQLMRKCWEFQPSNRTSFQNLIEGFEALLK
Description: JAK kinase assay (HTRF, phosphorylation of synthetic peptide), JAK1. The conditions noted are these: catalytic domain, ATP at Km (7 μM); read-out: JAK1 kinase inhibitory activity (EC50). An outline of the steps: (§1)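 Catalytic-domain human JAK1 (GST-tagged, aa 850-1154) or His-tagged JAK2, baculovirus-expressed, phosphorylated 1 µM biotinylated TK peptide at Km ATP (JAK1 7 µM, 10 mM MgCl2, 50 nM SEB; JAK2 4 µM, 5 mM MgCl2) in pH 7.0 Hepes, 20-30 min RT. EDTA stop; overnight streptavidin-XL665/cryptate HTRF read.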

The next test has as its target T2, JAK2 (Homo sapiens, UniProt O60674).
T2 construct: All four purified enzymes contain only the catalytic domain; His (N); purchased Carna Biosciences, Inc; host or cells: baculovirus expression system
The test can be described thus: JAK kinase assay (HTRF, phosphorylation of synthetic peptide), JAK2. The conditions noted are these: catalytic domain, ATP at Km (4 μM); read-out: JAK2 kinase inhibitory activity (EC50). An outline of the steps:
as §1
For orientation: Time-resolved FRET reads energy transfer from a long-lived donor to a nearby acceptor.

The next test addresses T3, JAK3 (Homo sapiens, UniProt P52333).
T3 construct: All four purified enzymes contain only the catalytic domain; His (N); purchased Carna Biosciences, Inc; host or cells: baculovirus expression system
The test can be described thus: JAK kinase assay (HTRF, phosphorylation of synthetic peptide), JAK3. The settings on record: catalytic domain, ATP at Km (2 μM); read-out: JAK3 kinase inhibitory activity (EC50).

The next test deals with T4, TYK2 (Homo sapiens, UniProt P29597).
T4 construct: JAK1 (aa 850-1154) and TYK2 (aa 871-1187) are expressed with an N-terminally fused GST-tag; GST (N); purchased Carna Biosciences, Inc; host or cells: baculovirus expression system
T4 sequence (P29597 871-1187): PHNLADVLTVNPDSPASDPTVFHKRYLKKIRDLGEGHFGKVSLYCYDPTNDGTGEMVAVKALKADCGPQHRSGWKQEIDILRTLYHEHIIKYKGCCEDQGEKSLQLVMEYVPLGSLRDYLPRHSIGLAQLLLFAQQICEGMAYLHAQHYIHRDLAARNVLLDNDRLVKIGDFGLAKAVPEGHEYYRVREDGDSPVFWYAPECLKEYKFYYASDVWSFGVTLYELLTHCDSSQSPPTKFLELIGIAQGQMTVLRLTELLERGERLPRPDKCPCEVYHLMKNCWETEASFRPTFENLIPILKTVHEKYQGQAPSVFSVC
Description: JAK kinase assay (HTRF, phosphorylation of synthetic peptide), TYK2. The settings on record: catalytic domain, ATP at Km (13 μM); read-out: TYK2 kinase inhibitory activity (EC50). An outline of the steps:
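1 µM biotinylated TK peptide at Km ATP in pH 7.0 Hepes, 20-30 min RT. EDTA stop; overnight streptavidin-XL665/cryptate HTRF read.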

SMILES strings stand for the structures. Bounds are passed on as bounds.

T3 sequence (P52333 822-1111 limits assumed): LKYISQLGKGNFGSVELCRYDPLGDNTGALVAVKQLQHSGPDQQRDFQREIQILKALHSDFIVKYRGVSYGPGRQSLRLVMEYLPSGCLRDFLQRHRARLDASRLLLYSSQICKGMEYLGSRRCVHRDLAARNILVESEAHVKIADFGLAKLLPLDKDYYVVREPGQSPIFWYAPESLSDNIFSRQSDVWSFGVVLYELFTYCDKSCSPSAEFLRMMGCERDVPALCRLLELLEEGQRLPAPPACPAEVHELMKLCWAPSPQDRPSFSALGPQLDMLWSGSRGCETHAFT
T2 sequence (O60674 849-1124 limits assumed): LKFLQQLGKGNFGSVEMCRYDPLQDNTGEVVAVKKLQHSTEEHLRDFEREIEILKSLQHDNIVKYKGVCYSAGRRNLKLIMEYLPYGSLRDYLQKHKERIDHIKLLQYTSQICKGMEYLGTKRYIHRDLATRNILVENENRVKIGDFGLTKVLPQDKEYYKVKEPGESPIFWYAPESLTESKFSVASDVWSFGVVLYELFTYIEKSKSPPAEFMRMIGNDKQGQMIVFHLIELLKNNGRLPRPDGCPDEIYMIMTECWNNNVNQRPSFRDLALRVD

For the compound `CN(C[C@@H]1CC(F)(F)CN1C(=O)CCO)S(=O)(=O)N1CCN(c2ncnc3[nH]ccc23)CC12CC2` [Example 155, N-[[(2S)-4,4-difluoro-1-(3-hydroxypropanoyl)pyrrolidin-2-yl]methyl]-N-methyl-5-(7H-pyrrolo[2,3-d]pyrimidin-4-yl)-5,8-diazaspiro[2.5]octane-8-sulfonamide], the EC50 at JAK1, on JAK2, at JAK3 and at TYK2 was below 100 nM each time.

Regarding `CN(C[C@@H]1CC(F)(F)CN1C(=O)CCC#N)S(=O)(=O)N1CCN(c2ncnc3[nH]ccc23)CC12CC2` [Example 156, N-[[(2S)-1-(3-cyanopropanoyl)-4,4-difluoro-pyrrolidin-2-yl]methyl]-N-methyl-5-(7H-pyrrolo[2,3-d]pyrimidin-4-yl)-5,8-diazaspiro[2.5]octane-8-sulfonamide], the EC50 at JAK1, at JAK2, on JAK3 and at TYK2 was below 100 nM each time.

Take `CN(C[C@@H]1CC(F)(F)CN1C=O)S(=O)(=O)N1CCN(c2ncnc3[nH]ccc23)CC12CC2` [Example 157, N-[[(2S)-4,4-difluoro-1-formyl-pyrrolidin-2-yl]methyl]-N-methyl-5-(7H-pyrrolo[2,3-d]pyrimidin-4-yl)-5,8-diazaspiro[2.5]octane-8-sulfonamide]: the EC50 at JAK1, at JAK2, at JAK3 and at TYK2 was below 100 nM in each case.

Regarding `CN(CC1CCN(S(C)(=O)=O)CC1)S(=O)(=O)N1CCN(c2ncnc3[nH]ccc23)CC12CC2` [Example 158, N-methyl-N-[(1-methylsulfonyl-4-piperidyl)methyl]-5-(7H-pyrrolo[2,3-d]pyrimidin-4-yl)-5,8-diazaspiro[2.5]octane-8-sulfonamide], the EC50 at JAK1 was below 100 nM; at JAK2, below 100 nM; on JAK3, below 100 nM; at TYK2, 100 to 500 nM.

Consider `CN(CC1CCN(S(=O)(=O)CCCC#N)CC1)S(=O)(=O)N1CCN(c2ncnc3[nH]ccc23)CC12CC2` [Example 159, N-[[1-(3-cyanopropylsulfonyl)-4-piperidyl]methyl]-N-methyl-5-(7H-pyrrolo[2,3-d]pyrimidin-4-yl)-5,8-diazaspiro[2.5]octane-8-sulfonamide], for which the EC50 is below 100 nM on JAK1, below 100 nM at JAK2, below 100 nM on JAK3 and 100 to 500 nM at TYK2.

As to `CN(CC1CCCN(S(C)(=O)=O)C1)S(=O)(=O)N1CCN(c2ncnc3[nH]ccc23)CC12CC2` (stereo not drawn) [Example 160, N-methyl-N-[(1-methylsulfonyl-3-piperidyl)methyl]-5-(7H-pyrrolo[2,3-d]pyrimidin-4-yl)-5,8-diazaspiro[2.5]octane-8-sulfonamide], the EC50 at JAK1 was below 100 nM; on JAK2, below 100 nM; on JAK3 it was below 100 nM; at TYK2, 100 to 500 nM.

Take `CN(CC1CCCN(S(=O)(=O)CCCC#N)C1)S(=O)(=O)N1CCN(c2ncnc3[nH]ccc23)CC12CC2` (stereo not drawn) [Example 161, N-[[1-(3-cyanopropylsulfonyl)-3-piperidyl]methyl]-N-methyl-5-(7H-pyrrolo[2,3-d]pyrimidin-4-yl)-5,8-diazaspiro[2.5]octane-8-sulfonamide]: the EC50 was below 100 nM at JAK1, below 100 nM at JAK2, 100 to 500 nM on JAK3 and above 500 nM on TYK2.

As to `CN(C[C@@H]1CC(F)(F)CN1S(C)(=O)=O)S(=O)(=O)N1CCN(c2ncnc3[nH]ccc23)CC12CC2` [Example 162, N-[[(2S)-4,4-difluoro-1-methylsulfonyl-pyrrolidin-2-yl]methyl]-N-methyl-5-(7H-pyrrolo[2,3-d]pyrimidin-4-yl)-5,8-diazaspiro[2.5]octane-8-sulfonamide], the EC50 on JAK1, on JAK2, on JAK3 and at TYK2 was below 100 nM each time.

Take `CN(C[C@@H]1CC(F)(F)CN1S(=O)(=O)CCCC#N)S(=O)(=O)N1CCN(c2ncnc3[nH]ccc23)CC12CC2` [Example 163, N-[[(2S)-1-(3-cyanopropylsulfonyl)-4,4-difluoro-pyrrolidin-2-yl]methyl]-N-methyl-5-(7H-pyrrolo[2,3-d]pyrimidin-4-yl)-5,8-diazaspiro[2.5]octane-8-sulfonamide]: the EC50 at JAK1, on JAK2, on JAK3 and at TYK2 was below 100 nM throughout.

For `CN(C[C@@H]1CC(F)(F)CN1S(=O)(=O)CC1CC1)S(=O)(=O)N1CCN(c2ncnc3[nH]ccc23)CC12CC2` [Example 164, N-[[(2S)-1-(cyclopropylmethylsulfonyl)-4,4-difluoro-pyrrolidin-2-yl]methyl]-N-methyl-5-(7H-pyrrolo[2,3-d]pyrimidin-4-yl)-5,8-diazaspiro[2.5]octane-8-sulfonamide], the EC50 at JAK1, on JAK2, on JAK3 and on TYK2 was below 100 nM throughout.

For `CN(CC1CCS(=O)(=O)C1)S(=O)(=O)N1CCN(c2ncnc3[nH]ccc23)CC12CC2` (stereo not drawn) [Example 165, N-[(1,1-dioxothiolan-3-yl)methyl]-N-methyl-5-(7H-pyrrolo[2,3-d]pyrimidin-4-yl)-5,8-diazaspiro[2.5]octane-8-sulfonamide], the EC50 on JAK1 was below 100 nM; at JAK2, below 100 nM; on JAK3, below 100 nM; on TYK2, 100 to 500 nM.

For `N#CCN(CC1CCS(=O)(=O)C1)S(=O)(=O)N1CCN(c2ncnc3[nH]ccc23)CC12CC2` (stereo not drawn) [Example 166, N-(cyanomethyl)-N-[(1,1-dioxothiolan-3-yl)methyl]-5-(7H-pyrrolo[2,3-d]pyrimidin-4-yl)-5,8-diazaspiro[2.5]octane-8-sulfonamide], the EC50 on JAK1, on JAK2, at JAK3 and at TYK2 was below 100 nM throughout.

For `O=S1(=O)CCC(CN(CCO)S(=O)(=O)N2CCN(c3ncnc4[nH]ccc34)CC23CC3)C1` (stereo not drawn) [Example 167, N-[(1,1-dioxothiolan-3-yl)methyl]-N-(2-hydroxyethyl)-5-(7H-pyrrolo[2,3-d]pyrimidin-4-yl)-5,8-diazaspiro[2.5]octane-8-sulfonamide], the EC50 on JAK1 was below 100 nM; at JAK2 it was below 100 nM; on JAK3, below 100 nM; at TYK2 it was 100 to 500 nM.

With `CN(CC1CCS(=O)(=O)CC1)S(=O)(=O)N1CCN(c2ncnc3[nH]ccc23)CC12CC2` [Example 168, N-[(1,1-dioxothian-4-yl)methyl]-N-methyl-5-(7H-pyrrolo[2,3-d]pyrimidin-4-yl)-5,8-diazaspiro[2.5]octane-8-sulfonamide], the half-maximal effective concentration (EC50) on JAK1, at JAK2, on JAK3 and on TYK2 was below 100 nM in each case.

As to `N#CCN(CC1CCS(=O)(=O)CC1)S(=O)(=O)N1CCN(c2ncnc3[nH]ccc23)CC12CC2` [Example 169, N-(cyanomethyl)-N-[(1,1-dioxothian-4-yl)methyl]-5-(7H-pyrrolo[2,3-d]pyrimidin-4-yl)-5,8-diazaspiro[2.5]octane-8-sulfonamide], the EC50 on JAK1, at JAK2, on JAK3 and on TYK2 was below 100 nM in each case.

`O=S1(=O)CCC(CN(CCO)S(=O)(=O)N2CCN(c3ncnc4[nH]ccc34)CC23CC3)CC1` [Example 170, N-[(1,1-dioxothian-4-yl)methyl]-N-(2-hydroxyethyl)-5-(7H-pyrrolo[2,3-d]pyrimidin-4-yl)-5,8-diazaspiro[2.5]octane-8-sulfonamide]: the EC50 on JAK1, at JAK2, at JAK3 and on TYK2 was below 100 nM in each case.

As to `N#CCCN(CC#N)S(=O)(=O)N1CCN(c2ncnc3[nH]ccc23)CC12CC2` [Example 171, N-(2-cyanoethyl)-N-(cyanomethyl)-5-(7H-pyrrolo[2,3-d]pyrimidin-4-yl)-5,8-diazaspiro[2.5]octane-8-sulfonamide], the EC50 at JAK1, on JAK2, at JAK3 and at TYK2 was below 100 nM in each case.

For the compound `CC(=O)N(CC1CCS(=O)(=O)C1)S(=O)(=O)N1CCN(c2ncnc3[nH]ccc23)CC12CC2` (stereo not drawn) [Example 172, N-[(1,1-dioxothiolan-3-yl)methyl]-N-[[5-(7H-pyrrolo[2,3-d]pyrimidin-4-yl)-5,8-diazaspiro[2.5]octan-8-yl]sulfonyl]acetamide], the EC50 at JAK1 is below 100 nM; at JAK2, below 100 nM; on JAK3, below 100 nM; at TYK2, 100 to 500 nM.

One may read the EC50 as the concentration that produces a half-maximal response.
